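Assay format: 96-well plates, 48-hour exposure. At the TGI there is no net growth.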 Bounds are passed on as bounds.

Experiment in all cases: NCI tumour cell line growth inhibition, 48 h
Assay [1] has as its system HOP-62 NSCLC.
Assay [2] deals with HS 578T breast.
The test system of assay [3] is MCF7 breast.
In assay [4] the test system is MDA-MB-435.
The test system of assay [5] is NCI-H460 lung.
The subject of assay [6] is OVCAR-3 ovarian.
The subject of assay [7] is OVCAR-5 ovarian.
For assay [8], the system named is OVCAR-8 ovarian.
Assay [9] relates to RPMI-8226 leukemia.
Assay [10] relates to SF-295 CNS.
Assay [11] relates to SNB-19 CNS.
The subject of assay [12] is SR leukemia.
For assay [13], the system named is T-47D breast.
The test system of assay [14] is UACC-257 melanoma.

For the compound `O=C(/C=C/c1ccc(-c2ccccc2)cc1)NCc1ccc(C(=O)NCCc2c[nH]c3ccccc23)cc1`, the TGI in [1] was 36.7 µM; in assay [2] it was over 100 µM; in [3], over 100 µM; in [4] it was over 100 µM; in [5] it was over 100 µM; in assay [6], 92.6 µM. In addition, the TGI is 66.6 µM in [7]; over 100 µM in assay [8]; over 100 µM in [9]; 38.6 µM in assay [10]; 53.6 µM in assay [11]; over 100 µM in assay [12]. Further, the TGI in assay [13] and in assay [14] was over 100 µM each time.
Regarding `CC(C)(C)n1c(=O)n(C(=O)C(Cl)(Cl)Cl)n(C(=O)C(Cl)(Cl)Cl)c1=O`, the TGI in assay [1], in assay [2], in assay [3], in assay [4], in [5] and in assay [6] was over 100 µM throughout. Also, the TGI in [7], in assay [8], in assay [9], in assay [10], in assay [11] and in assay [12] was over 100 µM throughout. The TGI in [13] and in [14] was over 100 µM throughout.
On to `CC(NC1=NCCO1)c1cccc([N+](=O)[O-])c1` (centres undefined), for which the TGI in assay [1], in assay [2], in assay [3], in [4], in [5] and in assay [6] was over 100 µM throughout. Moreover, the TGI in assay [7], in assay [8], in [9], in [10], in assay [11] and in assay [12] was over 100 µM throughout. The TGI in assay [13] and in assay [14] was over 100 µM in each case.
Take `CCCC(CC)c1c(O)c(O)c(C(CC)CCC)c(C(CC)CCC)c1C(CC)CCC` (centres undefined): the TGI in [1], in [2], in assay [3], in assay [4], in [5] and in assay [6] was over 10 µM throughout. Besides, the TGI in [7], in [8], in assay [9], in [10], in assay [11] and in assay [12] was over 10 µM in each case. In addition, the TGI in assay [13] and in assay [14] was over 10 µM throughout.
On to `COC(=O)c1ccc(CCc2cc(O)ccc2O)cc1`, for which the TGI in assay [1] was 48.6 µM; in assay [2], over 39.5 µM; in assay [3] it was over 62.2 µM; in [4], 21.7 µM; in [5], over 68.4 µM; in [6], 12.1 µM. For the same compound, the TGI in assay [7] was 50.7 µM; in assay [8], over 52.7 µM; in assay [9] it was 4.16 µM; in assay [10] it was over 70.5 µM; in assay [11], over 62.7 µM; in assay [12], over 21 µM. The TGI in assay [13] is 7.91 µM; in [14], 32.8 µM.
For `O=C1C=C2CO[C@H]3OC[C@H](O)[C@@H]1[C@@H]23`, the TGI in assay [1], in assay [2], in assay [3], in [4], in assay [5] and in assay [6] was over 100 µM throughout. In addition, the TGI in [7] is over 100 µM; in assay [8], over 100 µM; in assay [9] it was 44.8 µM; in [10] it was over 100 µM; in [11] it was over 100 µM; in assay [12] it was 63.1 µM. The TGI in assay [13] was determined as 67.3 µM; in assay [14] it was 86.4 µM.
Turning to `Cc1cc(Nc2ccc(N=Nc3ccc(O)c4ncccc34)cc2)nc(C)n1`, the TGI in assay [1] is over 69.6 µM; in assay [2] it was over 59.4 µM; in assay [3] it was 52.2 µM; in [4], 29.6 µM; in [5], 38 µM; in assay [6], over 29.5 µM. Besides, the TGI was over 87.9 µM in [7]; 48.3 µM in [8]; 32.5 µM in assay [9]; over 80.4 µM in [10]; over 100 µM in assay [11]; over 100 µM in assay [12]. In addition, the results for the TGI in assay [13] and in [14] were 35.6 µM and 43.8 µM, respectively.
Turning to `Cc1cc(NS(=O)(=O)c2ccc(NC(=O)c3cccc4c(NNc5ccc(S(=O)(=O)N=C(N)N)cc5)c5ccccc5nc34)cc2)no1`, the TGI in [1], in [2], in assay [3], in assay [4], in assay [5] and in assay [6] was over 100 µM each time. For the same compound, the TGI in assay [7], in assay [8], in [9], in assay [10], in assay [11] and in assay [12] was over 100 µM each time. Also, the TGI in assay [13] and in assay [14] was over 100 µM in each case.
On to `O=c1[nH]c2cc3cccnc3c(Cl)c2nc1C(F)(F)F`, for which the TGI in assay [1], in assay [2], in assay [3], in [4], in [5] and in assay [6] was over 100 µM in each case. Further, the TGI in assay [7], in assay [8], in assay [9], in assay [10], in [11] and in assay [12] was over 100 µM in each case. The results for the TGI in assay [13] and in assay [14] were 88.1 µM and over 100 µM, respectively.
In the case of `COC(=O)/C=C\C(C#N)(C#N)N=Cc1ccc(C)s1`, the TGI in assay [1] was 28.5 µM; in assay [2], 43.6 µM; in assay [3], 4.05 µM; in assay [4], 7.65 µM; in assay [5], 40.7 µM; in [6], 9.81 µM. Further, the TGI in assay [7] is 15.9 µM; in [8] it was 9.97 µM; in assay [9] it was over 32.5 µM; in [10], 31.8 µM; in assay [11], 32.8 µM; in assay [12], 8.17 µM. Also, the TGI was found to be 3.92 µM in [13] and 7.71 µM in [14].
On to `c1cc(C[S+]2CCCC2)ccc1C[S+]1CCCC1`, for which the TGI in assay [1], in assay [2], in [3], in assay [4], in [5] and in assay [6] was over 100 µM in each case. In addition, the TGI in [7], in assay [8], in [9], in assay [10], in assay [11] and in [12] was over 100 µM each time. For the same compound, the TGI in assay [13] and in [14] was over 100 µM throughout.

The values above are taken from PubChem BioAssay (NCI).
